ChEMBL document CHEMBL1201862, “PubChem BioAssay data set” (2004)
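Tested at 5 concentrations; 48 h exposure; 96-well plates; endpoints linearly interpolated, else capped at highest concentration. GI50 is the concentration that inhibits growth by half.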 Activity calls are given as the source filed them. Cut-off read from the data, not from the text of the source: active = GI50 up to about 1.1 µM and inactive = higher.

Assays:
Assay in all cases: NCI tumour cell line growth inhibition, 48 h
NCI-H23 = tested on: NCI-H23
HOP-62 = tested on: HOP-62
SF-268 = tested on: SF-268
SK-MEL-2 = tested on: SK-MEL-2
RXF 393 = tested on: RXF 393
SF-539 = tested on: SF-539
ACHN = tested on: ACHN
NCI-H460 = tested on: NCI-H460
K562 = tested on: K562
HCC 2998 = tested on: HCC 2998
OVCAR-8 = tested on: OVCAR-8
M14 = tested on: M14
SW-620 = tested on: SW-620
HOP-92 = tested on: HOP-92
OVCAR-5 = tested on: OVCAR-5
RPMI-8226 = tested on: RPMI-8226
UACC-257 = tested on: UACC-257
786-0 = tested on: 786-0
HCT-15 = tested on: HCT-15
SF-295 = tested on: SF-295
LOX IMVI = tested on: LOX IMVI
CCRF-CEM = tested on: CCRF-CEM
SNB-19 = tested on: SNB-19
SN12C = tested on: SN12C
SK-MEL-5 = tested on: SK-MEL-5
COLO 205 = tested on: COLO 205
HOP-18 = tested on: HOP-18
DMS-273 = tested on: DMS-273
NCI-H226 = tested on: NCI-H226
IGROV-1 = tested on: IGROV-1
KM-20L2 = tested on: KM-20L2
DLD-1 = tested on: DLD-1
UO-31 = tested on: UO-31
UACC-62 = tested on: UACC-62
TK-10 = tested on: TK-10
CAKI-1 = tested on: CAKI-1
EKVX = tested on: EKVX
MOLT-4 = tested on: MOLT-4
HL-60 = tested on: HL-60
A549 = tested on: A549
LXFL 529 = tested on: LXFL 529
OVCAR-4 = tested on: OVCAR-4
HCT-116 = tested on: HCT-116
A498 = tested on: A498
SK-MEL-28 = tested on: SK-MEL-28
HT-29 = tested on: HT-29
SNB-78 = tested on: SNB-78
SNB-75 = tested on: SNB-75
DMS-114 = tested on: DMS-114
NCI-H522 = tested on: NCI-H522
SK-OV-3 = tested on: SK-OV-3
Malme-3M = tested on: Malme-3M
SR = tested on: SR
U-251 = tested on: U-251
M19-MEL = tested on: M19-MEL
KM12 = tested on: KM12
OVCAR-3 = tested on: OVCAR-3
NCI/ADR-RES = tested on: NCI/ADR-RES
XF498 = tested on: XF498

N#CC(C(=O)C(=O)NCCCNC(=O)C(=O)C(C#N)c1ccccc1)c1ccccc1 (centres undefined)
GI50 (NCI-H23): > 100000 nM (inactive) | GI50 (HOP-62): > 100000 nM (inactive) | GI50 (SF-268): > 100000 nM (inactive) | GI50 (SK-MEL-2): > 100000 nM (inactive) | GI50 (RXF 393): > 100000 nM (inactive) | GI50 (SF-539): > 100000 nM (inactive) | GI50 (ACHN): > 100000 nM (inactive) | GI50 (NCI-H460): > 100000 nM (inactive) | GI50 (K562): > 100000 nM (inactive) | GI50 (HCC 2998): > 100000 nM (inactive) | GI50 (OVCAR-8): > 100000 nM (inactive) | GI50 (M14): > 100000 nM (inactive) | GI50 (SW-620): > 100000 nM (inactive) | GI50 (HOP-92): > 100000 nM (inactive) | GI50 (OVCAR-5): > 100000 nM (inactive) | GI50 (RPMI-8226): > 100000 nM (inactive) | GI50 (UACC-257): > 100000 nM (inactive) | GI50 (786-0): > 100000 nM (inactive) | GI50 (HCT-15): > 100000 nM | GI50 (SF-295): > 100000 nM (inactive) | GI50 (LOX IMVI): > 100000 nM (inactive) | GI50 (CCRF-CEM): > 100000 nM (inactive) | GI50 (SNB-19): 5330 nM (inactive) | GI50 (SN12C): > 100000 nM (inactive) | GI50 (SK-MEL-5): > 100000 nM (inactive) | GI50 (COLO 205): > 100000 nM (inactive) | GI50 (HOP-18): > 100000 nM (inactive) | GI50 (DMS-273): > 100000 nM (inactive) | GI50 (NCI-H226): > 100000 nM (inactive) | GI50 (IGROV-1): > 100000 nM (inactive) | GI50 (KM-20L2): > 100000 nM (inactive) | GI50 (DLD-1): > 100000 nM (inactive) | GI50 (UO-31): > 100000 nM (inactive) | GI50 (UACC-62): > 100000 nM (inactive) | GI50 (TK-10): > 100000 nM (inactive) | GI50 (CAKI-1): 16.7 nM (active) | GI50 (EKVX): > 100000 nM (inactive) | GI50 (MOLT-4): > 100000 nM (inactive) | GI50 (HL-60): > 100000 nM (inactive) | GI50 (A549): > 100000 nM (inactive) | GI50 (LXFL 529): > 100000 nM (inactive) | GI50 (OVCAR-4): > 100000 nM (inactive) | GI50 (HCT-116): > 100000 nM (inactive) | GI50 (A498): > 100000 nM (inactive) | GI50 (SK-MEL-28): > 100000 nM (inactive) | GI50 (HT-29): > 100000 nM (inactive) | GI50 (SNB-78): > 100000 nM (inactive) | GI50 (SNB-75): 30100 nM (inactive) | GI50 (DMS-114): > 100000 nM (inactive) | GI50 (NCI-H522): > 100000 nM (inactive) | GI50 (SK-OV-3): > 100000 nM (inactive) | GI50 (Malme-3M): > 100000 nM (inactive) | GI50 (SR): > 100000 nM (inactive) | GI50 (U-251): > 100000 nM (inactive) | GI50 (M19-MEL): > 100000 nM (inactive) | GI50 (KM12): > 100000 nM (inactive) | GI50 (OVCAR-3): > 100000 nM (inactive)

CNC(=O)c1cccc2c(Nc3ccc(NS(C)(=O)=O)cc3OC)c3cccc(C)c3nc12
GI50 (NCI-H23): 41.8 nM (active) | GI50 (HOP-62): 24.4 nM (active) | GI50 (SF-268): 114 nM (active) | GI50 (NCI/ADR-RES): 2260 nM (inactive) | GI50 (SK-MEL-2): 1640 nM (inactive) | GI50 (RXF 393): 533 nM (active) | GI50 (SF-539): 62.8 nM (active) | GI50 (ACHN): 14 nM (active) | GI50 (NCI-H460): < 10 nM (active) | GI50 (K562): 230 nM (active) | GI50 (HCC 2998): 568 nM (active) | GI50 (OVCAR-8): 333 nM (active) | GI50 (M14): 102 nM (active) | GI50 (SW-620): 169 nM (active) | GI50 (HOP-92): 228 nM (active) | GI50 (OVCAR-5): 282 nM (active) | GI50 (RPMI-8226): 52.5 nM (active) | GI50 (UACC-257): 1700 nM (inactive) | GI50 (786-0): 48.3 nM (active) | GI50 (HCT-15): 225 nM | GI50 (SF-295): 33.3 nM (active) | GI50 (LOX IMVI): 48.8 nM (active) | GI50 (CCRF-CEM): 13.3 nM (active) | GI50 (SNB-19): 55.5 nM (active) | GI50 (SN12C): 32.6 nM (active) | GI50 (SK-MEL-5): 131 nM (active) | GI50 (COLO 205): 542 nM (active) | GI50 (HOP-18): 571 nM (active) | GI50 (DMS-273): 21.9 nM (active) | GI50 (NCI-H226): 54.6 nM (active) | GI50 (IGROV-1): 1310 nM (inactive) | GI50 (KM-20L2): 409 nM (active) | GI50 (UO-31): 425 nM (active) | GI50 (UACC-62): 63.1 nM (active) | GI50 (TK-10): 1240 nM (inactive) | GI50 (CAKI-1): 20.7 nM (active) | GI50 (XF498): 196 nM (active) | GI50 (EKVX): 1340 nM (inactive) | GI50 (MOLT-4): 11.3 nM (active) | GI50 (HL-60): 13.1 nM (active) | GI50 (A549): 15.1 nM (active) | GI50 (LXFL 529): 1910 nM (inactive) | GI50 (OVCAR-4): 1900 nM (inactive) | GI50 (HCT-116): 243 nM (active) | GI50 (A498): 84.1 nM (active) | GI50 (SK-MEL-28): 2210 nM (inactive) | GI50 (HT-29): 478 nM (active) | GI50 (SNB-75): 122 nM (active) | GI50 (DMS-114): 32.2 nM (active) | GI50 (NCI-H522): 279 nM (active) | GI50 (SK-OV-3): 54 nM (active) | GI50 (Malme-3M): 430 nM (active) | GI50 (SR): < 10 nM (active) | GI50 (U-251): 25.1 nM (active) | GI50 (M19-MEL): 585 nM (active) | GI50 (KM12): 479 nM (active) | GI50 (OVCAR-3): 1390 nM (inactive)
